According to patent US8470889B2 (TRT Pharma Inc., priority 2008, dated 2013):
Like-named read-outs stand apart in the source and are kept apart here. Each block holds one molecule with its values, some of them ahead of it.

Tests used:
[1] = tested on: C4-2B cells; test: MTT cell growth inhibition, C4-2B;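 further: cells treated with a dilution series for 72 h, then MTT added and absorbance read at 600 nm, IC50 fitted from dose-response curves by nonlinear regression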
Method: (§1) MDA PCa 2b was seeded at the same density in medium BRFF-HPC1 (Athena Enzyme Systems, Baltimore, Md., USA) supplemented with 20% FBS. After overnight incubation, the medium was changed to a fresh medium containing different concentrations of test compounds diluted from stock DMSO solution. The final concentration of DMSO is 0.5%. After 72 h of incubation with test compounds, 20 μL of 3-(4,5-dimethyl thiazol-2-yl)-2,5-diphenyltetrazolium bromide (MTT) solution (5 mg/mL in PBS) were added to each well and incubated further for 2 h. Next, the supernatant was aspirated and the MTT formazan formed by metabolically viable cells was dissolved in 100 μL of isopropanol. The plates were mixed for 30 min, and the absorbance was measured at 600 nm on a plate reader (FLUOstar OPTIMA, BMG LabTech). All samples were in triplicate. The IC50 values were determined from dose-response curves by nonlinear regression using PRISM v5.00 (GraphPad Software Inc, La Jolla, Calif., USA).
(§2) The in vitro cytotoxicity of 1-20 were evaluated by MTT assays in a panel of prostate cancer cell lines, including LNCaP, MDA PCa 2b, 22Rv1, C4-2B and PC-3.

[2] = tested on: 22Rv1 cells; test: MTT cell growth inhibition, 22Rv1; settings: MTT
[3] = tested on: PC-3 cells; test: MTT cell growth inhibition, PC-3; settings: for Cellular IC50 (μM) PC-3: Table 2, 72 h, max tested 50 μM (β-ionone 150 μM)
Method: as §1, §2

[4] = tested on: LNCaP cells; test: MTT cell growth inhibition, LNCaP;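 further: MTT formazan absorbance at 600 nm read after 72 h of compound exposure, IC50 fitted by nonlinear regression of dose-response curves, samples run in triplicate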
Method: as §1, §2

[5] = read-out: Cellular IC50 (μM) C4-2B, Table 8
[6] = read-out: Cellular IC50 (μM) 22Rv1, Table 8
[7] = read-out: Cellular IC50 (μM) PC3, Table 8
[8] = read-out: Cellular IC50 (μM) LNCaP, Table 8
[9] = read-out: Cellular IC50 (μM) C4-2B, Table 9
[10] = read-out: Cellular IC50 (μM) 22Rv1, Table 9
[11] = read-out: Cellular IC50 (μM) PC-3, Table 9
[12] = read-out: Cellular IC50 (μM) LNCaP, Table 9
[13] = read-out: IC50 (μM) PC-3, Table 1, 72 h, maximum tested concentration 50 μM
[14] = read-out: IC50 (μM) LNCaP, Table 1, 72 h
[15] = read-out: IC50 (μM) C4-2B, Table 1, 72 h
[16] = read-out: IC50 (μM) 22Rv1, Table 1, 72 h
[17] = read-out: Cellular IC50 (μM) C4-2B, Table 2, 72 h
[18] = read-out: Cellular IC50 (μM) 22Rv1, Table 2, 72 h
[19] = read-out: Cellular IC50 (μM) PC-3, Table 2, 72 h, max tested 50 μM (β-ionone 150 μM)
[20] = read-out: Cellular IC50 (μM) LNCaP, Table 2, 72 h

IC50 [2, 6]: 4.5 µM
IC50 [3, 7]: 7.2 µM
IC50 [4, 8]: 3.5 µM
SMILES: CC1=C(/C=C/C(=O)/C=C/c2cc(F)ccc2F)C(C)(C)CCC1O (stereo not drawn) [Compound B66]
IC50 [1, 5]: 6.9 µM

IC50 [2, 6]: 4.6 µM
IC50 [3, 7]: 7.6 µM
IC50 [4, 8]: 2.5 µM
SMILES: CC1=C(/C=C/C(=O)/C=C/c2ccccc2C)C(C)(C)CCC1O (stereo not drawn) [Compound B64]
IC50 [1, 5]: 2.7 µM

IC50 [2, 10]: 12.6 µM
IC50 [3, 11]: 13.7 µM
IC50 [4, 12]: 3.2 µM
SMILES: CC1(C)CCC(O)C=C1/C=C/C(=O)/C=C/c1c(-c2ccccc2)[nH]c2ccccc12 (stereo not drawn) [Compound B87]
IC50 [1, 9]: 2.2 µM

IC50 [3, 13]: 52.2 µM
IC50 [4, 14]: 25.1 µM
SMILES: COc1ccc(/C=C/C(O)=C/C(=O)/C=C/C2=C(C)CCCC2(C)C)cn1 [Compound 8]

IC50 [2, 16]: 10.6 µM
IC50 [3, 13]: 15.8 µM
IC50 [4, 14]: 20.6 µM
SMILES: COc1cc(/C=C/C(O)=C/C(=O)/C=C/C2=C(C)CCCC2(C)C)ccc1O [Compound 1]
IC50 [1, 15]: 44.3 µM

IC50 [2, 10]: 7.3 µM
IC50 [3, 11]: 10.6 µM
IC50 [4, 12]: 3.8 µM
SMILES: Cc1ccc2[nH]cc(/C=C/C(=O)/C=C/C3=CC(O)CCC3(C)C)c2c1 (stereo not drawn) [Compound B82]
IC50 [1, 9]: 6.8 µM

IC50 [2, 16]: 12.6 µM
IC50 [3, 13]: 50.6 µM
IC50 [4, 14]: 18.6 µM
SMILES: CC1=C(/C=C/C(=O)/C=C(O)/C=C/c2ccc(O)cc2)C(C)(C)CCC1 [Compound 5]
IC50 [1, 15]: 5.7 µM

IC50 [3, 7]: 1.7 µM
IC50 [4, 8]: 1.4 µM
SMILES: CC1=C(/C=C/C(=O)/C=C/c2cccc(OC(F)(F)F)c2)C(C)(C)CCC1O (stereo not drawn) [Compound B46]

IC50 [2, 18]: 49.7 µM
IC50 [3, 19]: 34.3 µM
IC50 [4, 20]: 15.9 µM
SMILES: COc1ccc(C=CC(=O)C(=Cc2ccc(OC)c(OC)c2)C(=O)C=CC2=C(C)CCCC2(C)C)cc1OC [Compound 12]
IC50 [1, 17]: 54.4 µM

IC50 [2, 10]: 4 µM
IC50 [3, 11]: 5.8 µM
IC50 [4, 12]: 2.2 µM
SMILES: CC1(C)CCC(O)C=C1/C=C/C(=O)/C=C/c1c[nH]c2ccc(Br)cc12 (stereo not drawn) [Compound B85]
IC50 [1, 9]: 4.8 µM

IC50 [2, 6]: 10.6 µM
Cellular IC50 (μM) PC3 ([3]; Table 8): Int
IC50 [4, 8]: 8.9 µM
SMILES: CC1=C(/C=C/C(=O)/C=C/c2ccc(O)cc2)C(C)(C)CCC1O (stereo not drawn) [Compound B52]

IC50 [2, 6]: 4.3 µM
IC50 [3, 7]: 6.9 µM
IC50 [4, 8]: 1.4 µM
SMILES: CC1=C(/C=C/C(=O)/C=C/c2ccc(N(CCO)CCO)cc2)C(C)(C)CCC1O (stereo not drawn) [Compound B62]
IC50 [1, 5]: 1.7 µM

IC50 [2, 18]: 5.2 µM
IC50 [3, 19]: 29.2 µM
IC50 [4, 20]: 7.3 µM
SMILES: COc1ccc(C=CC(=O)C(=Cc2ccc(OC)c(O)c2)C(=O)C=CC2=C(C)CCCC2(C)C)cc1O [Compound 11]
IC50 [1, 17]: 4.5 µM

SMILES: CC1(C)CCC(O)C=C1/C=C/C(=O)/C=C/c1ccc2ccccc2n1 (stereo not drawn) [Compound B94]
IC50 [1, 9]: 1.5 µM
IC50 [2, 10]: 2.7 µM
IC50 [3, 11]: 5.5 µM
IC50 [4, 12]: 2 µM

IC50 [2, 18]: 9.9 µM
IC50 [3, 19]: 31 µM
IC50 [4, 20]: 15.7 µM
SMILES: COc1ccc(/C=C/C(=O)/C(=C/c2ccc(OC)nc2)C(=O)/C=C/C2=C(C)CCCC2(C)C)cn1 [Compound 17]
IC50 [1, 17]: 12.2 µM

IC50 [2, 18]: 1.5 µM
IC50 [3, 19]: 5.9 µM
IC50 [4, 20]: 3.4 µM
SMILES: COc1cc(C=CC(=O)C(=Cc2cc(OC)c(OC)c(OC)c2)C(=O)C=CC2=C(C)CCCC2(C)C)cc(OC)c1OC [Compound 16]
IC50 [1, 17]: 2.2 µM

SMILES: CC1(C)CCC(O)C=C1/C=C/C(=O)/C=C/c1cccc2cc[nH]c12 (stereo not drawn) [Compound B90]
IC50 [1, 9]: 1.7 µM
IC50 [2, 10]: 2.1 µM
IC50 [3, 11]: 2.1 µM
IC50 [4, 12]: 1.4 µM

IC50 [2, 6]: 3 µM
IC50 [3, 7]: 4.9 µM
IC50 [4, 8]: 1.8 µM
SMILES: COc1cc(/C=C/C(=O)/C=C/C2=C(C)C(O)CCC2(C)C)cc(OC)c1OC (stereo not drawn) [Compound B72]
IC50 [1, 5]: 1.7 µM

IC50 [2, 18]: 31.6 µM
Cellular IC50 (μM) PC-3 [3]: Inactive^c
IC50 [4, 20]: 11.8 µM
SMILES: CCn1c2ccccc2c2cc(/C=C(\C(=O)/C=C/C3=C(C)CCCC3(C)C)C(=O)/C=C/c3ccc4c(c3)c3ccccc3n4CC)ccc21 [Compound 18]
IC50 [1, 17]: 28.5 µM

IC50 [2, 6]: 1.8 µM
IC50 [3, 7]: 4.6 µM
IC50 [4, 8]: 1.6 µM
SMILES: CC1=C(/C=C/C(=O)/C=C/c2cccc(OC(F)(F)C(F)F)c2)C(C)(C)CCC1O (stereo not drawn) [Compound B47]

IC50 [2, 10]: 9.5 µM
IC50 [3, 11]: 19.8 µM
IC50 [4, 12]: 7 µM
SMILES: Cn1c(/C=C/C(=O)/C=C/C2=CC(O)CCC2(C)C)cc2ccccc21 (stereo not drawn) [Compound B80]

Cellular IC50 (μM) PC-3 [3]: Inactive^e
IC50 [4, 20]: 151 µM
SMILES: CC(=O)/C=C/C1=C(C)CCCC1(C)C [β-Ionone, reference compound]
Cytotoxicity, IC50 (μM) PC-3 ([3]; Table 5, β-ionone max tested 150 μM): Inactive^b
IC50 ([4]; read-out: Cytotoxicity, IC50 (μM) LNCaP, Table 5): 151 µM

IC50 [3, 13]: 47.9 µM
IC50 [4, 14]: 26.4 µM
SMILES: COc1ccc(/C=C/C(O)=C/C(=O)/C=C/C2=C(C)CCCC2(C)C)cc1OC [Compound 3]
IC50 [1, 15]: 30.6 µM

IC50 [2, 10]: 4.7 µM
IC50 [3, 11]: 8.6 µM
IC50 [4, 12]: 3.8 µM
SMILES: CCn1c2ccccc2c2cc(/C=C/C(=O)/C=C/C3=CC(O)CCC3(C)C)ccc21 (stereo not drawn) [Compound B91]
